Entries after “also recorded” stand apart in the source; their conditions may differ. Where two headings read alike, the source gives them in different places.

Data set [1] deals with HSV-1. The settings on record: cited from earlier work.
Data set [2] relates to HSV-2. Particulars: cited from earlier work.
The test system of data set [3] is VZV. Particulars: cited from earlier work.
The test system of data set [4] is CMV. The settings on record: cited from earlier work.
Data set [5] in a line: CC50 in tissue culture assay. It counts as cell-based, human. The settings on record: human. As to the method:
(§1) Each of the products of Examples 1, 2, 3 and 4 was tested in vitro in tissue culture assays for potent antiviral action with respect to varicella zoster virus (VZV). Acyclovir was included in the test procedure as a control. VZV (strains OKa and YS) induced cytopathogenicity in human embryonic lung fibroblast (HEL) cells was measured 7 days post infection. EC50 was defined as the drug concentration (in μM) required to reduce virus-induced cytopathicity by 50%.
(§2) Each of the products of Examples 7 and 8 was tested in vitro in tissue culture assays for potent antiviral action with respect to varicella zoster virus (VZV). Acyclovir was included in the test procedure as a control. EC50 and CC50 values were measured as described under examples 1 to 6 above. […]

The subject of data set [6] is human embryonic lung fibroblast (HEL) cells. The experiment in a line: CC50 in tissue culture assay. It counts as cell-based. The method, then: as §1, §2
Data set [7] has as its system cytomegalovirus (CMV). The experiment in a line: CMV induced cytopathogenicity in HEL cells (in vitro tissue culture assay). It counts as cell-based. The settings on record: for EC50: Table IV, CMV induced cytopathogenicity in HEL cells. As to the method:
The product of Example 8 was additionally tested in vitro in tissue culture assays for potent antiviral action with respect to cytomegalovirus (CMV). CMV induced cytopatho-genicity in human embryonic lung fibroblast (HEL) cells was measured post infection. EC50 and CC50 were defined as above for VZV. The equivalent data for the known CMV active agent dihydroxypropyl guanine (DHPG) is included in Table IV as a control.
(Cytopathic effects are the visible damage that an infection or toxin causes in cultured cells.)

The subject of data set [8] is varicella zoster virus (VZV) (strains OKa and YS). Nature of the data set: microbe, parasite or virus in culture. It counts as cell-based. Particulars: for EC50: read-out: EC50/VZV/μM; for antiviral activity with respect to varicella zoster virus (in words): verbal assessment. The method, then:
VZV (strains OKa and YS) induced cytopathogenicity in human embryonic lung fibroblast (HEL) cells was measured 7 days post infection. EC50 was defined as the drug concentration (in μM) required to reduce virus-induced cytopathicity by 50%.
The values of EC50 and CC50 were measured as above.

Setting [9] is: Table I, VZV strains OKa and YS, HEL cells, 7 days post infection, concentration reducing virus-induced cytopathicity by 50%.
Setting [10] is: Table II, X = O, R chain length series, concentration reducing virus-induced cytopathicity by 50%.
Setting [11] is: Table III, measured as under examples 1 to 6.

For the molecule `O=c1nc2occc2cn1C1CC(O)C(CO)O1` (stereo not shown), in data set [1], the “activity in in vitro assay against HSV-1” value is “inactive”. In addition, the “activity in in vitro assay against HSV-2” value in data set [2] is “inactive”. Also, in data set [3], the “activity in in vitro assay against VZV” value is “inactive”. Also, in data set [4], the “activity in in vitro assay against CMV” value is “inactive”.
`Nc1nc2c(ncn2COCCO)c(=O)[nH]1` [Acyclovir, reference compound]: the results for the CC50 in data set [5] and in data set [6] (human) were more than 100000 nM and more than 100 µM, respectively.
Take `Nc1nc2c(ncn2COC(CO)CO)c(=O)[nH]1` [DHPG, dihydroxypropyl guanine, reference compound]: the CC50 in data set [6] is more than 200 µM. In addition, the EC50 in data set [7] came to 3.1 µM.
`CCCCCCCCCCCCc1cc2cn([C@H]3C[C@H](O)[C@@H](CO)O3)c(=O)nc2o1` [Example 1, 3-(2′-Deoxy-β-D-ribofuranosyl)-6-dodecyl-2,3dihydrofuro[2,3-d]pyrimidin-2-one]: the EC50 in data set [8] (setting [9]) and in data set [8] (setting [10]) was not above 1.2 µM in each case. For the same molecule, the “antiviral activity with respect to varicella zoster virus (in words)” value in data set [8] was “antiviral activity comparable to acyclovir”. In addition, the CC50 in data set [6] (Table I, read-out: CC50/μM) was more than 200 µM.
Consider `CCCCCCCCCCc1cc2cn([C@H]3C[C@H](O)[C@@H](CO)O3)c(=O)nc2o1` [Example 2, 3-(2′-Deoxy-β-D-ribofuranosyl)-6-decyl-2,3-dihydrofuro[2,3-d]pyrimidin-2-one], for which the EC50 in data set [8] (setting [9]) and in data set [8] (setting [10]) was 0.005 µM throughout. In data set [8], the “antiviral activity with respect to varicella zoster virus (in words)” value was “extremely potent antiviral activity”. Further, in data set [6], the CC50 is more than 50 µM.
On to `CCCCCCCCc1cc2cn(C3CC(O)C(CO)O3)c(=O)nc2o1` [Example 3, 3-(2′-Deoxy-β-D-ribofuranosyl)-6-octyl-2,3-dihydrofuro[2,3-d]pyrimidin-2-one], for which the EC50 amounted to 0.003 µM in data set [8] (Human alphaherpesvirus 3, HEL, 168 h) and 0.03 µM in data set [8] (Human alphaherpesvirus 3, HEL). Further, the “antiviral activity with respect to varicella zoster virus (in words)” value in data set [8] is recorded as “extremely potent antiviral activity; also recorded: antiviral activity comparable to acyclovir”. The same molecule yielded a CC50 in data set [5] of more than 50000 nM.
With `CCCCCCc1cc2cn([C@H]3C[C@H](O)[C@@H](CO)O3)c(=O)nc2o1` [Example 4, 3-(2′-Deoxy-β-D-ribofuranosyl)-6-hexyl-2,3-dihydrofuro[2,3-d]pyrimidin-2-one], the EC50 in data set [8] (setting [9]) and in data set [8] (setting [10]) was 1.3 µM throughout. Moreover, the CC50 in data set [6] was more than 200 µM.
Turning to `CCCCCc1cc2cn([C@H]3C[C@H](O)[C@@H](CO)O3)c(=O)nc2o1` [Example 5, 3-(2′-Deoxy-β-D-ribofuranosyl)-6-pentyl-2,3-dihydrofuro[2,3-d]pyrimidin-2-one], the EC50 in data set [8] (setting [10]) came out at 3 µM.
Regarding `CCCCCCCc1cc2cn([C@H]3C[C@H](O)[C@@H](CO)O3)c(=O)nc2o1` [Example 6, 3-(2′-Deoxy-β-D-ribofuranosyl)-6-heptyl-2,3-dihydrofuro[2,3-d]pyrimidin-2-one], in data set [8] (setting [10]), the EC50 stood at 0.17 µM.
Consider `O=c1nc2oc(CCCCCCCCCO)cc2cn1[C@H]1C[C@H](O)[C@@H](CO)O1` [Example 7, 3-(2′-Deoxy-β-D-ribofuranosyl)-6-(9-hydroxynonyl)-2,3′-dihydrofuro[2,3-d]pyrimidin-2-one], for which, in data set [8] (setting [11]), the EC50 worked out at 0.4 µM. In addition, in data set [6], the CC50 was more than 200 µM.
Turning to `O=c1nc2oc(CCCCCCCCCCl)cc2cn1C1CC(O)C(CO)O1` (stereo not shown) [Example 8, 6-(9-chlorononyl)-3-(4-hydroxy-5-(hydroxymethyl)tetrahydro-2-furanyl)-2,3-dihydrofuro[2,3,-d]pyrimidin-2-one], the EC50 in data set [8] (setting [11]) turned out to be 0.006 µM; in data set [7], 7.2 µM. For the same molecule, the “antiviral activity with respect to CMV (in words)” value in data set [7] (verbal assessment) is “comparable to DHPG”.
Consider `O=c1nc2oc(CCCO)cc2cn1[C@H]1C[C@H](O)[C@@H](CO)O1` [Example 9, 3-(2′-Deoxy-β-D-ribofuranosyl)-6-(3-hydroxypropyl)-2,3-dihydrofuro[2,3-d]pyrimidin-2-one], for which the EC50 in data set [8] (Table V) worked out at 9.7 µM. Further, the “antiviral activity with respect to varicella zoster virus (in words)” value in data set [8] is “low activity”. For the same molecule, the CC50 in data set [6] is more than 200 µM.
As for `O=c1nc2oc(CCCCO)cc2cn1[C@H]1C[C@H](O)[C@@H](CO)O1` [Example 10, 3-(2′-Deoxy-β-D-ribofuranosyl)-6-(4-hydroxybutyl)-2,3-dihydrofuro[2,3-d]pyrimidin-2-one], in data set [8] (Table V), the EC50 amounted to 29 µM. Further, the “antiviral activity with respect to varicella zoster virus (in words)” value in data set [8] is recorded as “low activity”. Besides, the CC50 in data set [6] was more than 200 µM.
On to `CCCCCCc1cc2cn([C@H]3C[C@H](O)[C@@H](CO)O3)c(=O)nc2[nH]1` [Example 12, 3-(2′-Deoxy-β-D-ribofuranosyl)-6-hexyl,3,7-dihydro-2H-pyrrolo[2,3-d]pyrimidin-2-one], for which the EC50 in data set [8] (Table VII) is more than 50 µM.
Same read-out and setting: as for `CCCCCCCCc1cc2cn([C@H]3C[C@H](O)[C@@H](CO)O3)c(=O)nc2[nH]1` [Example 13, 3-(2′-Deoxy-β-D-ribofuranosyl)-6-octyl,3,7-dihydro-2H-pyrrolo[2,3-d]pyrimidin-2-one], the figure is 0.15 µM.
Turning to `CCCCCCCCCCCCc1cc2cn([C@H]3C[C@H](O)[C@@H](CO)O3)c(=O)nc2[nH]1` [Example 14, 3-(2′-Deoxy-β-D-ribofuranosyl)-6-dodecyl-3,7-dihydro-2H-pyrollo[2,3-d]pyrimidin-2-one], the EC50 in data set [8] (Table VII) is 3.7 µM. For the same molecule, the CC50 in data set [6] is more than 200 µM.
